# Source: patent US8580814B2, “Methods of using (+)-1,4-dihydro-7-[(3S,4S)-3-methoxy-4-(methylamino)-1-pyrrolidinyl]-4- oxo-1-(2-thiazolyl)-1,8-naphthyridine-3-carboxylic acid for treatment of cancer” (priority 2006, dated 2013)
# Marks after values point to notes of the source that are not given here.
# Experiments:
# clinical = settings: human, in vivo
# Method: (§1) SNS-595 was administered to patients with advanced solid cancers as an IV infusion over 10 minutes on 2 schedules. In the first schedule (A), a weekly dose of SNS-595 was administered for three weeks followed by at least 7 days off (qwk×3). In the second schedule (B), a dose of SNS-595 was administered once every three weeks (q3wk).
# (§2) In both schedules, the starting dose of SNS-595 was 3 mg/m^2, and doses were escalated by sequential cohorts of 3. The doses were doubled until the first related adverse event at or above Grade 2 or until the first abnormal lab value. The doses were then escalated by a modified Fibonacci schema.
# For patients dosed according to schedule A, PK samples were collected on treatment Days 1 and 15 and were assayed using noncompartmental analysis. Plasma SNS-595 concentrations were determined using a validated LC-MS/MS assay. […] FIG. 1 depicts the plasma concentrations of SNS-595 over time among the various patient cohorts.
# For patients dosed according to schedule B, pharmacokinetic parameters were evaluated in 36 patients (21 heavily pretreated and 15 minimally pretreated) after a single dose of 3 to 75 mg/m^2.
# In study A, pharmacokinetics were assessed on Days 1 and 15 (after the first and third doses).
# [1] = Safety (adverse events, hematologic effects, DLT, MTD) in patients with advanced solid tumors; assay type: in vivo
# Method: as §1, §2
# In the description herein, the term “maximum tolerated dose” or “MTD” refers to the dose level below a dose of SNS-595 where ≧2 of 6 patients experienced dose limiting toxicity (DLT). The term, “heavily pretreated” or “HP” patient refers to a patient who has previously received >6 courses of an alkylating agent, chemotherapy or >2 courses of platinum, mitomycin-C or any nitrosourea, or XRT to >25% of bone. […] (See, Tolcher et al, JCO 2001; 19:2937-2947).
# As used herein, dose limiting toxicity (DLT) refers to absolute neutrophil count (ANC) ≦500 for ≧7 days or febrile neutropenia or platelet nadir <25000 or bleeding or non-hematologic adverse events (AE) ≧Grade 3 (as described in Common Terminology Criteria for Adverse Events Version 3.0 (CTCAE v3.0)), wherein adverse events required >14 days dose delay.
# [2] = system: HCT-116 cells treated with 2 mM caffeine; test: MTT assay, sensitization (caffeine); assay type: cell-based; settings: 2 mM caffeine pre-treated for 16 hours, compound 72 hours
# Method: Cells were then incubated with 5% MTT for 1-2 hours and lysed. MTT was colorimetrically read at 570 nm and EC50's were determined using linear regression analysis.
# Sensitization was carried out with various chemical treatments.
# [3] = system: ATRFLOX (HCT-116 cells with 6 fold lower ATR levels); test: Timing of apoptosis (caspase-3 activation); assay type: cell-based; settings: Cell Line ATRFLOX; dosed at 30 fold above the EC50 for cytotoxicity
# [4] = system: HCT-116 cells treated with 2 mM caffeine; test: Timing of apoptosis (caspase-3 activation); assay type: cell-based; settings: Cell Line Caffeine (HCT-116, 2 mM caffeine); dosed at 30 fold above the EC50 for cytotoxicity
# [5] = Safety in patients with advanced or refractory acute leukemias; assay type: in vivo, human
# Method: (§3) SNS-595 was administered to patients with advanced or refractory acute leukemias as a slow IV push. Diagnoses included AML (19 patients) and ALL (2 patients). All patients had disease refractory to or relapsed from prior therapy (median 3 prior regimens (range 1-6)). A total of 21 patients (9 female and 12 male; median age=64 yrs, range 21-80) were treated in five cohorts using two schedules. In the first schedule (A), a weekly dose of SNS-595 was administered for three weeks followed by 7 days off (qwk×3). In the second schedule (B), a dose of SNS-595 was administered twice a week for two weeks (biwk×2). The cycle duration, including days off, was 28 days for both schedules. […] Additional cycles were permitted if patients achieved stable disease or better. The starting dose was 18 mg/m^2 on schedule A and 9 mg/m^2 on schedule B, and dosage was escalated by cohort. Cohorts of 3-6 patients were accrued to doses using a modified Fibonacci sequence.
# [6] = system: advanced or refractory acute leukemias; test: Peripheral blasts in patients with advanced or refractory acute leukemias; assay type: in vivo, human; settings: six patients distributed across all dosing groups of Table 15, following cycle 1
# Method: as §3
smiles,measurement,setting,value
"CN[C@H]1CN(c2ccc3c(=O)c(C(=O)O)cn(-c4nccs4)c3n2)C[C@@H]1OC [SNS-595, (+)-1,4-dihydro-7-[(3S,4S)-3-methoxy-4-(methylamino)-1-pyrrolidinyl]-4-oxo-1-(2-thiazolyl)-1,8-naphthyridine-3-carboxylic acid]",AUC (area under curve) versus dose,clinical,increased proportionally with dose
same,"CL, averaged",clinical,2 L/hr/m^2
same,"CL, volume of distribution and T1/2 across doses",clinical,remained unchanged
same,Clearance (CL),clinical,2.2 L/hr/m2
same,"Clearance (CL), range",clinical,1.0-3.8 L/hr/m^2
same,Exposure,clinical,1.6 to 15 µg·h/mL
same,"T ½, Average",clinical,21.3 ± 5.3 h
same,"T ½, Range",clinical,13 to 56 h
same,"Vss, averaged",clinical,53 L/m^2
same,"clearance (CL), averaged",clinical,2 L/hr/m^2
same,drug dependent alterations in pharmacokinetic parameters,clinical,No evidence of drug dependent alterations
same,exposure,clinical,1.1 to 46 µg·h/mL
same,"volume of distribution (Vss), averaged",clinical,48 L/m^2
same,AUCinf,clinical; 3 mg/m2,1.14 ± 0.26 µg·h/mL
same,T ½,clinical; 3 mg/m2,16.4 ± 4.8 h
same,AUC(0-inf),"clinical; 3 mg/m2, AUCinf",1710 ± 200 ng·h/mL
same,half-life,"clinical; 3 mg/m2, T ½",1400 ± 432 min
same,AUCinf,clinical; 6 mg/m2,3.04 ± 0.32 µg·h/mL
same,Cmax,clinical; 6 mg/m2,347 ± 220 ng/mL
same,T ½,clinical; 6 mg/m2,22.2 ± 1.9 h
same,AUC(0-inf),"clinical; 6 mg/m2, AUCinf",2090 ± 530 ng·h/mL
same,Cmax,"clinical; 6 mg/m2, Cmax",531 ± 280 ng/mL
same,half-life,"clinical; 6 mg/m2, T ½",810 ± 132 min
same,AUCinf,clinical; 12 mg/m2,6.32 ± 0.22 µg·h/mL
same,Cmax,clinical; 12 mg/m2,2250 ± 1070 ng/mL
same,T ½,clinical; 12 mg/m2,18.0 ± 4.1 h
same,AUC(0-inf),"clinical; 12 mg/m2, AUCinf",6810 ± 1680 ng·h/mL
same,Cmax,"clinical; 12 mg/m2, Cmax",1840 ± 2700 ng/mL
same,half-life,"clinical; 12 mg/m2, T ½",1190 ± 318 min
same,T ½,clinical; 15 mg/m2,26.4 ± 15.2 h
same,Vssobs,clinical; 15 mg/m2,43.8 ± 7.90 L/m^2
same,AUC(0-inf),"clinical; 15 mg/m2, AUCinf",10800 ± 4700 ng·h/mL
same,Cmax,"clinical; 15 mg/m2, Cmax",865 ± 318 ng/mL
same,Vssobs,clinical; 18 mg/m2,47.19 ± 8.06 L/m^2
same,AUC(0-inf),"clinical; 18 mg/m2, AUCinf",8500 ± 2860 ng·h/mL
same,Cmax,"clinical; 18 mg/m2, Cmax",1690 ± 830 ng/mL
same,half-life,"clinical; 18 mg/m2, T ½",948 ± 252 min
same,AUCinf,clinical; 24 mg/m2,12.63 ± 0.86 µg·h/mL
same,T ½,clinical; 24 mg/m2,15.7 ± 3.2 h
same,AUC(0-inf),"clinical; 24 mg/m2, AUCinf",15200 ng·h/mL
same,half-life,"clinical; 24 mg/m2, T ½",1450 min
same,T ½,clinical; 36 mg/m2,22.5 ± 4.2 h
same,Vssobs,clinical; 36 mg/m2,61.4 ± 12.8 L/m^2
same,AUC(0-inf),"clinical; 36 mg/m2, AUCinf",18000 ± 730 ng·h/mL
same,Cmax,"clinical; 36 mg/m2, Cmax",3380 ± 1920 ng/mL
same,T ½,clinical; 48 mg/m2,26.4 ± 13.1 h
same,Vssobs,clinical; 48 mg/m2,58.8 ± 14.5 L/m^2
same,AUC(0-inf),"clinical; 48 mg/m2, AUCinf",29400 ± 11300 ng·h/mL
same,Cmax,"clinical; 48 mg/m2, Cmax",3080 ± 1920 ng/mL
same,T ½,clinical; 60 mg/m2,25.0 ± 17.9 h
same,Vssobs,clinical; 60 mg/m2,48.0 ± 7.3 L/m^2
same,AUC(0-inf),"clinical; 60 mg/m2, AUCinf",40700 ± 23700 ng·h/mL
same,Cmax,"clinical; 60 mg/m2, Cmax",3860 ± 1680 ng/mL
same,T ½,clinical; 75 mg/m2,25.0 ± 4.9 h
same,Vssobs,clinical; 75 mg/m2,56.3 ± 9.4 L/m^2
same,AUC(0-inf),"clinical; 75 mg/m2, AUCinf",46100 ± 6120 ng·h/mL
same,Cmax,"clinical; 75 mg/m2, Cmax",5050 ± 1720 ng/mL
same,half-life,"clinical; T1/2, averaged",1140 min
same,half-life,clinical; T1/2 ± SD,1320 ± 660 min
same,half-life,"clinical; T ½, Average",1110 ± 276 min
same,half-life,"clinical; T ½, Range",600 to 1980 min
same,half-life,clinical; terminal half-life,~1140 min
same,half-life,clinical; terminal half-life (T1/2),~1260 min
same,half-life,"clinical; terminal half-life (T1/2), range",780 to 2940 min
same,dose limiting toxicity (DLT),"[1]; human, in vivo",neutropenia
same,dose-limiting toxicity (DLT),"[1]; human, in vivo",neutropenia
same,"edema peripheral, no. patients with Grade ≧ 3/no. patients with any Grade","[1]; human, in vivo",0/4*
same,grade 4 thrombocytopenia,"[1]; human, in vivo",two patients
same,non-hematologic toxicities,"[1]; human, in vivo",mostly grade 1/2
same,"pain in extremity, no. patients with Grade ≧ 3/no. patients with any Grade","[1]; human, in vivo",0/5
same,"SAE possibly related to study drug: Sepsis, CTCAE v3.0 Grade","[1]; q3wk, 1 patient",Grade 3
same,MTD,[1]; study A (qwk×3),15 mg/m^2
same,MTD,"[1]; study B (q3wk), heavily pretreated (HP) patients",48 mg/m^2
same,MTD,"[1]; study B (q3wk), minimally pretreated (MP) patients",60 mg/m^2
same,"Sensitization, fold decrease in the EC50 for cytotoxicity (MTT): Caffeine",[2],0.5 fold
same,Timing of apoptosis: fraction of cell cycle to achieve 50% maximal caspase-3 activation,[3],0.35
same,Timing of apoptosis: fraction of cell cycle to achieve 50% maximal caspase-3 activation,[4],0.25
same,Grade 4 neutropenic fever,[5]; acute leukemia patients,only one patient
same,Non-dose limiting toxicities,[5]; acute leukemia patients,"nausea/vomiting, diarrhea, and mucositis"
same,"SAE possibly related to study drug: Infection, CTCAE v3.0 Grade","[5]; biwk x2, 1 patient",Grade 3
same,"SAE possibly related to study drug: Neutropenic Fevers, CTCAE v3.0 Grade","[5]; biwk x2, 1 patient",Grade 4
same,"SAE possibly related to study drug: Infection with Neutropenia, CTCAE v3.0 Grade","[5]; qwk x3, 1 patient",Grade 3
same,"SAE possibly related to study drug: Pneumonia with Neutropenia, CTCAE v3.0 Grade","[5]; qwk x3, 1 patient",Grade 3
same,dose limiting toxicities (DLTs),[5]; up to 13.5 mg/m^2 on the biwk×2 schedule,No dose limiting toxicities
same,dose limiting toxicities (DLTs),[5]; up to 27 mg/m^2 on the qwk×3 schedule,No dose limiting toxicities
same,reductions in peripheral blasts,[6],greater than 50%
